Measurements: patent publication US11845714B2, “Process for producing taurine” (Vitaworks IP, LLC, priority 2014, dated 2023)

Settings: 25% aqueous ammonia at room temperature

- solubility in 25% aqueous ammonia: 36 g in 100 g
SMILES: NCCS(=O)(=O)O [Taurine, 2-aminoethanesulfonic acid]
